PubChem BioAssay AID2060510 (Molecular Pharmacology Branch, DTP, NCI, 2025)

System: 439559-082-T-J2-PDC spheroids viability
Assay: Anticancer human tumor 439559-082-T-J2-PDC patient-derived colon adenocarcinoma cell line growth inhibition [GQUAD]
Details: for IC50: curve of first compound; for viability, T/C: stronger effect = lower value
How it was run: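 Tumor cells were grown as complex spheroids with HUVEC endothelial cells and mesenchymal stem cells as stroma. G-quadruplex stabilizers were combined with targeted agents over half-log dilutions from near the clinical Cmax, or from 10 microM.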

[1] = second compound 0.0316 µM, first compound 0.0316 µM
[2] = second compound 0.0316 µM, first compound 0.1 µM
[3] = second compound 0.0316 µM, first compound 0.316 µM
[4] = second compound 0.0316 µM, first compound 1 µM
[5] = second compound 0.0316 µM, first compound 3.16 µM
[6] = second compound 0.0316 µM, first compound 10 µM
[7] = second compound 0.1 µM, first compound 0.0316 µM
[8] = second compound 0.1 µM, first compound 0.1 µM
[9] = second compound 0.1 µM, first compound 0.316 µM
[10] = second compound 0.1 µM, first compound 1 µM
[11] = second compound 0.1 µM, first compound 3.16 µM
[12] = second compound 0.1 µM, first compound 10 µM
[13] = second compound 0.316 µM, first compound 0.0316 µM
[14] = second compound 0.316 µM, first compound 0.1 µM
[15] = second compound 0.316 µM, first compound 0.316 µM
[16] = second compound 0.316 µM, first compound 1 µM
[17] = second compound 0.316 µM, first compound 3.16 µM
[18] = second compound 0.316 µM, first compound 10 µM
[19] = second compound 1 µM, first compound 0.0316 µM
[20] = second compound 1 µM, first compound 0.1 µM
[21] = second compound 1 µM, first compound 0.316 µM
[22] = second compound 1 µM, first compound 1 µM
[23] = second compound 1 µM, first compound 3.16 µM
[24] = second compound 1 µM, first compound 10 µM
[25] = second compound 3.16 µM, first compound 0.0316 µM
[26] = second compound 3.16 µM, first compound 0.1 µM
[27] = second compound 3.16 µM, first compound 0.316 µM
[28] = second compound 3.16 µM, first compound 1 µM
[29] = second compound 3.16 µM, first compound 3.16 µM
[30] = second compound 3.16 µM, first compound 10 µM
[31] = second compound 10 µM, first compound 0.0316 µM
[32] = second compound 10 µM, first compound 0.1 µM
[33] = second compound 10 µM, first compound 0.316 µM
[34] = second compound 10 µM, first compound 1 µM
[35] = second compound 10 µM, first compound 3.16 µM
[36] = second compound 10 µM, first compound 10 µM
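Note: spheroids exposed to the agents for 7 days before readout.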
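Throughout, for viability, T/C: percent of luminescence signal in DMSO vehicle wells taken as 100% viability.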

CC1COCCN1c1cc(C2(S(C)(=N)=O)CC2)nc(-c2ccnc3[nH]ccc23)n1 (centres undefined) + Cc1[nH]c2ccc(F)cc2c1-c1nc2c3cccnc3c3ncccc3c2[nH]1
IC50 (second compound 0.0316 µM): > 10 µM
IC50 (second compound 0.1 µM): > 10 µM
IC50 (second compound 0.316 µM): > 10 µM
IC50 (second compound 1 µM): > 10 µM
IC50 (second compound 3.16 µM): > 10 µM
IC50 (second compound 10 µM): > 10 µM
viability, T/C [1]: 100%
viability, T/C [2]: 92.5%
viability, T/C [3]: 103%
viability, T/C [4]: 106%
viability, T/C [5]: 96.7%
viability, T/C [6]: 76.8%
viability, T/C [7]: 109%
viability, T/C [8]: 104%
viability, T/C [9]: 90.9%
viability, T/C [10]: 102%
viability, T/C [11]: 93.9%
viability, T/C [12]: 75.8%
viability, T/C [13]: 88.1%
viability, T/C [14]: 105%
viability, T/C [15]: 99.6%
viability, T/C [16]: 104%
viability, T/C [17]: 98.5%
viability, T/C [18]: 71.3%
viability, T/C [19]: 99.9%
viability, T/C [20]: 86.8%
viability, T/C [21]: 100%
viability, T/C [22]: 90.5%
viability, T/C [23]: 91.8%
viability, T/C [24]: 68.5%
viability, T/C [25]: 87.5%
viability, T/C [26]: 94.2%
viability, T/C [27]: 80.8%
viability, T/C [28]: 77.4%
viability, T/C [29]: 83.5%
viability, T/C [30]: 63.1%
viability, T/C [31]: 88%
viability, T/C [32]: 87.8%
viability, T/C [33]: 80.8%
viability, T/C [34]: 74.4%
viability, T/C [35]: 80.6%
viability, T/C [36]: 64.3%

COc1ccc([C@@H](O)c2cc(-c3ncnc4cc(N5CCOCC5)ccc34)c(F)cc2Cl)nn1 + Cc1[nH]c2ccc(F)cc2c1-c1nc2c3cccnc3c3ncccc3c2[nH]1
IC50 (second compound 0.0316 µM): > 10 µM
IC50 (second compound 0.1 µM): > 10 µM
IC50 (second compound 0.316 µM): > 10 µM
IC50 (second compound 1 µM): > 10 µM
IC50 (second compound 3.16 µM): > 10 µM
IC50 (second compound 10 µM): > 10 µM
viability, T/C [1]: 97.1%
viability, T/C [2]: 98%
viability, T/C [3]: 87.8%
viability, T/C [4]: 98.1%
viability, T/C [5]: 85%
viability, T/C [6]: 95.5%
viability, T/C [7]: 111%
viability, T/C [8]: 99.5%
viability, T/C [9]: 89%
viability, T/C [10]: 93.3%
viability, T/C [11]: 98%
viability, T/C [12]: 88.5%
viability, T/C [13]: 106%
viability, T/C [14]: 93.2%
viability, T/C [15]: 92.1%
viability, T/C [16]: 86.9%
viability, T/C [17]: 83.7%
viability, T/C [18]: 75.9%
viability, T/C [19]: 99.9%
viability, T/C [20]: 101%
viability, T/C [21]: 90.5%
viability, T/C [22]: 92.6%
viability, T/C [23]: 85.8%
viability, T/C [24]: 75.6%
viability, T/C [25]: 73.1%
viability, T/C [26]: 85.1%
viability, T/C [27]: 83.2%
viability, T/C [28]: 69%
viability, T/C [29]: 69.3%
viability, T/C [30]: 77.4%
viability, T/C [31]: 84.9%
viability, T/C [32]: 93.9%
viability, T/C [33]: 83.7%
viability, T/C [34]: 82%
viability, T/C [35]: 74.4%
viability, T/C [36]: 80.8%
